Source: patent US20210379068A1, “METHODS AND MATERIALS FOR TREATING NEUROPSYCHIATRIC DISORDERS” (Mayo Foundation for Medical Education and Research, priority 2018, published 2021)
“Also recorded” adds a separate entry of the source.

What was measured:
Type in all cases: in vivo, mouse
HFD-fed INK-ATTAC mice = assay: Elevated plus maze, chow/HFD INK-ATTAC mice treated with AP20187; settings: INK-ATTAC mice on HFD; AP20187 10 mg/kg i.p. vs vehicle
Procedure: (§1) INK-ATTAC mice were injected intraperitoneally (i.p.) with AP20187 (10 mg/kg) or vehicle for 3 days every 2 weeks for a total of 8-10 weeks.
A grey colored elevated plus maze apparatus was used. Two open arms (25×5 cm) and two closed arms (25×5 cm) were attached at right angles to a central platform (5×5 cm). The apparatus was set 40 cm above the floor. Mice were first acclimatized to the room for 1-1.5 hours. Mice were then placed individually on the central platform with their back to one of the open arms. Before the test, mice were habituated for 1 minute to the maze, then placed back in the home cage for 5 minutes. Mice were tested for 5 minutes during which they could freely explore the apparatus. Tracking software (Ethovision) recognizes mouse head, central body point, and the base of the tail. Anxiety was quantified by frequency of and time spent during head pokes/dips toward open arms. Higher anxiety is indicated by a lower frequency of movement into open arms and less time spent there.

wild-type C57Bl/6 mice = assay: Open field test, off-target effects of AP in wild-type C57Bl/6 mice on HFD; settings: AP 10 mg/kg i.p. 3 days every 2 weeks for 8 weeks
Procedure: (§2) For off target effect measurements db/db and HDF mice (fed with HFD for 2 months prior treatment) were injected intraperitoneally (i.p.) with […] at 10 mg/kg or vehicle for 3 days every 2 weeks for 8 weeks.
(§3) Locomotor activity and anxiety-like behavior of mice were assessed in sound-insulated, rectangular activity chambers (Med Associates Inc., St Albans, Vt., USA: W×L×D=27 cm×27 cm×20 cm with continually running fans, infrared lasers, and sensors). Beam breaks were assessed in 2-minute bins over 30 minutes, converted automatically to current mouse location and distance travelled (cm), and recorded on a computer with Med-PC software Version 4.0. Before the test, mice were acclimatized to the room for 1-1.5 hours before being introduced into the chambers. Mice were habituated for 5 minutes in the Open Field chamber (without recording) then placed for another 5 minutes in the home cage. Afterwards, mice were introduced back to the chambers and all mouse movements were recorded for 30 minutes. Anxiety was quantified by the distance mice travelled in the central 25% of the chamber (zone 1) as a function of the total distance mice travelled and by frequencies of entries into zone 1.

db/db mice = assay: Open field test, off-target effects of AP in db/db mice; settings: AP 10 mg/kg i.p. 3 days every 2 weeks for 8 weeks
Procedure: as §2, §3

[1] = tested on: senescent cells in perigonadal adipose tissue; assay: Senescence markers in perigonadal adipose tissue, INK-ATTAC mice on HFD; settings: AP20187 vs vehicle
Procedure: as §1
Total RNA was extracted from white adipose tissue and brain using Trizol (Life Technologies, Carlsbad, Calif.) and reverse transcribed to cDNA with a M-MLV Reverse Transcriptase kit (Life Technologies). Real-time PCR was performed in a 7500 Fast Real Time PCR System (Applied Biosystems, Foster City, Calif.) using TaqMan Fast Universal PCR Master Mix (Life Technologies) and predesigned primers and probes from Applied Biosystems (Assay ID: Mm00494449_m1 [CDKN2A]; Mm04205640_g1 [CDKN1A]; Mm00446191_m1 [IL6]). Target gene expression was expressed as 2-ΔΔCT by the comparative CT method and normalized to the expression of TATA-binding protein (TBP) (Assay ID: Mm01277042 ml [TBP]).
On the day of the sacrifice, a small piece of adipose tissue was fixed with 2% PFA and 0.5% glutaraldehyde (Sigma) for 15 minutes at room temperature before being incubated overnight in SA-β-Gal solution (150 mM NaCl (Sigma), 2 mM MgCl2 (Sigma), 40 mM Citric Acid (Sigma), 12 mM NaPO3 (Sigma), 400 μg/ml X-gal (Thermofisher), 2.1 mg/ml potassium hexacyanoferrat(II)trihydrate, and 1.65 mg/ml Potassium hexacyanoferrat(III)trihydrate (Sigma), pH 6.0) at 37° C. overnight. Fat chunks were washed with PBS three times and stored in PBS at 4° C. protected from light. Within 3 days, adipose tissue was stained with Hoechst solution (1:5000; Thermofisher), lightly squashed between two 1×3 inch glass slides, and imaged using a light microscope. 10-20 random visual fields were captured at 20× magnification at light exposure identical for all the samples. Images were quantified by manual counting of SA-β-Gal positive cells by a blinded assessor and the data were expressed as percent of total DAPI-positive cells.
Paraffin sections were deparaffinized with Histoclear and hydrated in an ethanol gradient followed by water and PBS. Antigen was retrieved by incubation in 0.01M citrate buffer (pH 6.0) at 95° C. for 10 minutes. Slides were placed in blocking buffer (1:60 normal goat serum [S-1000, Vector Laboratories] in 0.1% BSA/PBS) for 60 minutes at room temperature. […] Primary antibodies used (Table 2) were diluted in blocking buffer and applied overnight at 4° C. The next day, slides were washed 3 times with PBS and incubated for 30 minutes with secondary goat, anti-rabbit antibody (1:200; Vector Laboratories #BA-1000) for TAF staining or for 60 minutes with secondary Alexa antibody (Table 1). For TAF staining, Fluorescein-Avidin in PBS (1:500; #A-2011, Vector Lab) was applied to each sample for 20 minutes. Slides were washed 3 times in PBS, which was followed by FISH for TAF detection. Briefly, tissues were crosslinked with 4% paraformaldehyde for 20 minutes and dehydrated in graded ethanol. Sections were denatured for 10 minutes at 80° C. in hybridization buffer (70% formamide (Sigma), 25 mM MgCl2, 0.1 M Tris (pH 7.2), and 5% blocking reagent [Roche]) containing 2.5 μg ml^−1 Cy-3-labelled telomere-specific (CCCTAA) peptide nucleic acid probe (Panagene), followed by hybridization for 2 hour at room temperature in the dark. Slides were washed twice with 70% formamide in 2×SSC for 15 minutes, followed by washes in 2×SSC and PBS for 10 minutes. Sections were mounted in Vectashield, DAPI-containing mounting media and imaged.
A single, 3 μm-thick section per mouse was used for TAF staining, while for Dcx and Plin2 staining was performed on three 10 μm-thick sections 80 μm-apart. To quantify periventricular lipid accumulation 10-30 images in the periventricular region were taken using the DM5500 widefield fluorescence microscope from Leica with a 10× (for frequency of periventricular glia) or ×40 (for ALISE phenotype of ependymal cells) objective lens. Number of Plin2-positive cells (for frequency of ALISE-positive periventricular glia) or area of Plin2-positive vesicles (for ALISE phenotype of ependymal cells) was assessed using ImageJ software. […]

For `CC[C@H](C(=O)N1CCCC[C@H]1C(=O)O[C@H](CCc1ccc(OC)c(OC)c1)c1cccc(OCC(=O)NCC(CNC(=O)COc2cccc([C@@H](CCc3ccc(OC)c(OC)c3)OC(=O)[C@@H]3CCCCN3C(=O)[C@@H](CC)c3cc(OC)c(OC)c(OC)c3)c2)CN(C)C)c1)c1cc(OC)c(OC)c(OC)c1` [AP], the “anxiety-like phenotype: frequency of head entries/pokes into the open arms, EPM” value (HFD-fed INK-ATTAC mice) was “increased; also recorded: significantly decreased the anxiety-like phenotype”, the “time mice spent with their heads in open area, EPM” value (HFD-fed INK-ATTAC mice) was “increased” and the “anxiety-like behavior in open field (distance in the center), off-target control” value (wild-type C57Bl/6 mice) was “no difference”. For the same compound, the “anxiety-like behavior by open field test, off-target control” value (db/db mice) was “no difference; also recorded: No off-target effects”, the “% SA-β-Gal positive cells, perigonadal adipose tissue” value [1] was “significantly reduced” and the “p16Ink4a (RT-PCR), perigonadal adipose tissue” value [1] was “significantly reduced”. The “p21 (PCR), perigonadal adipose tissue” value [1] was “not significantly changed”, the “telomere-associated DNA damage foci (TAF), perigonadal adipose tissue” value [1] was “significantly reduced” and the “γ-H2A.X DNA damage foci, perigonadal adipose tissue” value [1] was “not significantly changed”. The “% SA-β-Gal positive cells, perigonadal adipose tissue” value ([1]; listed as AP20187) was “complete rescue”, the “p21 (PCR), perigonadal adipose tissue” value ([1]; listed as AP20187) was “no change” and the “γ-H2A.X DNA damage foci, perigonadal adipose tissue” value ([1]; listed as AP20187) was “no change”.
